Source: publication PMC4832382, “GacA is essential for Group A S treptococcus and defines a new class of monomeric dTDP‐4‐dehydrorhamnose reductases (RmlD)” (Molecular Microbiology, 2015)

B1: RmlD (dTDP-4-dehydrorhamnose reductase) from Salmonella enterica serovar Typhimurium, wild type (enzyme, Salmonella enterica (LT2), UniProt P26392 1-299, looked up)
chain: MNILLFGKTGQVGWELQRSLAPVGNLIALDVHSKEFCGDFSNPKGVAETVRKLRPDVIVNAAAHTAVDKAESEPELAQLLNATSVEAIAKAANETGAWVVHYSTDYVFPGTGDIPWQETDATSPLNVYGKTKLAGEKALQDNCPKHLIFRTSWVYAGKGNNFAKTMLRLAKERQTLSVINDQYGAPTGAELLADCTAHAIRVALNKPEVAGLYHLVAGGTTTWHDYAALVFDEARKAGITLALTELNAVPTSAYPTPASRPGNSRLNTEKFQRNFDLILPQWELGVKRMLTEMFTTTTI
notes: RmlD, Salmonella enterica serovar Typhimurium LT2, full-length rmlD (GI 16420628); also called SeRmlD; wild-type SeRmlD; source: E. coli BL21(DE3), expressed and purified as described for GacA; not shown: His6, N-terminal, cleaved; GST, N-terminal, cleaved

Experiments:
[1] = target: T1, GacA (dTDP-4-dehydrorhamnose reductase, RmlD) (Streptococcus pyogenes, UniProt Q9A0G6); test: SPR (Biacore T200), equilibrium fit, […]°C; format: binding
T1 construct: full-length gacA (AAZ51220.1; M5005_Spy_0602), chemically biotinylated
T1 sequence (Q9A0G6 entry or part of it): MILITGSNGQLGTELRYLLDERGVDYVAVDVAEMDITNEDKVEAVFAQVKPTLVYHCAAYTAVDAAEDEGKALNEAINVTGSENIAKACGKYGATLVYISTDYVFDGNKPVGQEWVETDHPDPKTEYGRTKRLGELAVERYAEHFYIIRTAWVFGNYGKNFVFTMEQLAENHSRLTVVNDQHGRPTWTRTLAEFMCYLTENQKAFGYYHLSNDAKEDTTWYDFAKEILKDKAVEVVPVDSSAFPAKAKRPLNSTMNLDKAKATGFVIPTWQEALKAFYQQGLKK

[2] = target: the molecule itself; test: SEC; size-exclusion chromatography of purified wild-type SeRmlD and triple mutant, retention compared with GacA

Molecule	Kd [1]	stoichiometry N [2]
NC(=O)C1=CN([C@@H]2O[C@H](COP(=O)(O)OP(=O)(O)OC[C@H]3O[C@@H](n4cnc5c(N)ncnc54)[C@H](OP(=O)(O)O)[C@@H]3O)[C@@H](O)[C@H]2O)C=CC1 [NADPH]	390 µM	
NC(=O)C1=CN([C@@H]2O[C@H](COP(=O)(O)OP(=O)(O)OC[C@H]3O[C@@H](n4cnc5c(N)ncnc54)[C@H](O)[C@@H]3O)[C@@H](O)[C@H]2O)C=CC1 [NADH]	110 µM	
B1		2
